The values that follow come from patent US20190022089A1, “PHARMACEUTICAL COMPOSITIONS AND DOSAGE FORMS” (Ignyta, Inc., priority 2017, published 2019).

For one data set, the target named is TrkC (Homo sapiens, UniProt Q16288). As to conditions: cited from earlier work.
The next data set deals with TrkB (Homo sapiens, UniProt Q16620). To be noted: cited from earlier work.
In another data set the target is ALK (Homo sapiens, UniProt Q9UM73). To be noted: cited from earlier work.
A short description of data set [1]: Early clinical studies in humans, formulation without acidulant (exposure). To be noted: for AUC higher when taken with food: formulation without acidulant.
The nature of data set [2]: Suitability of acids in 1:1 admixture: storage stability (appearance, HPLC). The data set is classed as physicochemical. To be noted: for Most abundant impurity (area %): three months storage, HPLC. As to the method:
The mixtures were prepared in duplicate for each sample, and stored in open top, 4 mL glass vials at (1) 60° C./dry heat and (2) 40° C. and 75% relative humidity (RH).
All admixture samples and the control samples stored at the 60° C. and dry heat condition remained as dry powders.
The HPLC traces analyses were conducted on an Agilent 1100 LC, equipped with Agilent Diode Array Detector and Chemstation Software using the conditions found in the table below.

Data set [3] in a line: Single-dose food effect study in dogs. The data set is classed as in vivo. To be noted: formulation that did not comprise at least one acidulant. From the text: Such food effects can cause difficulty during human testing of drugs as the fed or fasted condition of the patient can cause exposure or bioavailability of drugs to vary widely.
Data set [4] in a line: Comparative pharmacokinetic study of F1 and F2 formulations. To be noted: 800 mg fixed dose, 23 healthy subjects. The data set is classed as in vivo, human. As to the method: A comparative pharmacokinetic study in healthy, human subjects was conducted comparing a 200 mg dosage strength of pharmaceutical composition F1 (as described in Example 11) with a 200 mg dosage strength pharmaceutical composition F2 (as described in Example 10).
Pharmaceutical compositions F1 and F2, along with and lansoprazole, were administered orally with approximately 240 mL of water, according to the randomization scheme. Lansoprazole was administered as 30 mg lansoprazole delayed-release capsules.
Subjects were randomized into two groups, A and B. Periods 1 and 2 were conducted as a crossover design under fasting conditions where all subjects received F1 and F2. […] A representative summary of Periods 1, 2, and 3 and the pharmaceutical compositions subjects in groups A and B will receive in each Period is found below.
Subjects were randomized and received 3 out of 4 treatments in one of the following sequences: […] (i.e., Periods 1 and 2 were conducted as a crossover design under fasting conditions [Treatments A and B]). […] Each subject received each of the 3 assigned treatments on one occasion.
Treatment A: 30 mg lansoprazole (1×30 mg capsule), for 9 consecutive days (within ±1 hour of dosing time on Day 1), with 800 mg F1 (4×200 mg capsules) administered under fasting conditions 1.5 hours after administration of lansoprazole on Day 4. […]

Data set [5] concerns cancer having at least one molecular alteration in one or more of ALK, ROS1, TrkA, TrkB and TrkC. Nature of the data set: Early clinical studies in humans (antitumor effects). The format is in vivo. As to conditions: patients having various forms of cancer.

Chain of ALK (Q9UM73 19-1620): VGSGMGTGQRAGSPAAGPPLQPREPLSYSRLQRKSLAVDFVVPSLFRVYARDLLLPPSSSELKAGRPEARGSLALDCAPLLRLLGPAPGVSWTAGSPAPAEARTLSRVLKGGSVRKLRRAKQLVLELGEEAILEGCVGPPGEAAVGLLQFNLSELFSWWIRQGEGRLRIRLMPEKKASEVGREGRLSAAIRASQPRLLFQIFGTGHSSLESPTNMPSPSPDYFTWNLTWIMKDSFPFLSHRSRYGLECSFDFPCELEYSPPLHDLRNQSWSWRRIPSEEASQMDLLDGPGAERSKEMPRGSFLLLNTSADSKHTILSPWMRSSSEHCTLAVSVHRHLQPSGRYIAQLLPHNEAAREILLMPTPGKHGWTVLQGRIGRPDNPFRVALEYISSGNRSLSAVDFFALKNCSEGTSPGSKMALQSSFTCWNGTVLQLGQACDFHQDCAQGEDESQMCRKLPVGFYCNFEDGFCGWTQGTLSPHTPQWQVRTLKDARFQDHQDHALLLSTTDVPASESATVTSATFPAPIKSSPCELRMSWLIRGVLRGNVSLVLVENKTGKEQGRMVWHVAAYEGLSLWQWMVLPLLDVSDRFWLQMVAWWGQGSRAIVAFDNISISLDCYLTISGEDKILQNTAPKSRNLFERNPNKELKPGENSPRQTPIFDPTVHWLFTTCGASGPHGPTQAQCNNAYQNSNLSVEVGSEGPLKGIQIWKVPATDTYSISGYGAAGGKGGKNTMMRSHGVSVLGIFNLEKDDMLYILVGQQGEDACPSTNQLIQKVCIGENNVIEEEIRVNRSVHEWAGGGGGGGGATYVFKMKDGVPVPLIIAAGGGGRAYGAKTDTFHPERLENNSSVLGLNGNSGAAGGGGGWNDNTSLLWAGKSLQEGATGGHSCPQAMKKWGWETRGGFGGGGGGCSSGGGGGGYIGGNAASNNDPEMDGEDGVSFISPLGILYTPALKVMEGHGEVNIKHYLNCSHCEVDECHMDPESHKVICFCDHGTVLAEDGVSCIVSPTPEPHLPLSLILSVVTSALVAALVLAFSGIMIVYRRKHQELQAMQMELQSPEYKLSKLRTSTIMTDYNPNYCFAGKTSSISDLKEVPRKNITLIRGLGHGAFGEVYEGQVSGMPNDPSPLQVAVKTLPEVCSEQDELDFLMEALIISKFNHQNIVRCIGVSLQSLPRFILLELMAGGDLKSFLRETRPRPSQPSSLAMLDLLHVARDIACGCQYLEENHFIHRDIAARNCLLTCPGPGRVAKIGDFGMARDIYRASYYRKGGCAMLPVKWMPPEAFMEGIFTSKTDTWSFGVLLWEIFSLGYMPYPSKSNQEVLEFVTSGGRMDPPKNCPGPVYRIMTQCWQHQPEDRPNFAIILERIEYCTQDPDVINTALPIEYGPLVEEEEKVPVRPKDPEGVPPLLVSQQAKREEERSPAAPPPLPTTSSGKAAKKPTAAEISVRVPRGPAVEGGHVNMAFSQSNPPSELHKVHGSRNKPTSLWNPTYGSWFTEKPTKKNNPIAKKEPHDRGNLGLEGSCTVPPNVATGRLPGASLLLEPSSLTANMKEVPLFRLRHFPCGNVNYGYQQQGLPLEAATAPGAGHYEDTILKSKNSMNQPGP
Chain of TrkC (Q16288 32-839): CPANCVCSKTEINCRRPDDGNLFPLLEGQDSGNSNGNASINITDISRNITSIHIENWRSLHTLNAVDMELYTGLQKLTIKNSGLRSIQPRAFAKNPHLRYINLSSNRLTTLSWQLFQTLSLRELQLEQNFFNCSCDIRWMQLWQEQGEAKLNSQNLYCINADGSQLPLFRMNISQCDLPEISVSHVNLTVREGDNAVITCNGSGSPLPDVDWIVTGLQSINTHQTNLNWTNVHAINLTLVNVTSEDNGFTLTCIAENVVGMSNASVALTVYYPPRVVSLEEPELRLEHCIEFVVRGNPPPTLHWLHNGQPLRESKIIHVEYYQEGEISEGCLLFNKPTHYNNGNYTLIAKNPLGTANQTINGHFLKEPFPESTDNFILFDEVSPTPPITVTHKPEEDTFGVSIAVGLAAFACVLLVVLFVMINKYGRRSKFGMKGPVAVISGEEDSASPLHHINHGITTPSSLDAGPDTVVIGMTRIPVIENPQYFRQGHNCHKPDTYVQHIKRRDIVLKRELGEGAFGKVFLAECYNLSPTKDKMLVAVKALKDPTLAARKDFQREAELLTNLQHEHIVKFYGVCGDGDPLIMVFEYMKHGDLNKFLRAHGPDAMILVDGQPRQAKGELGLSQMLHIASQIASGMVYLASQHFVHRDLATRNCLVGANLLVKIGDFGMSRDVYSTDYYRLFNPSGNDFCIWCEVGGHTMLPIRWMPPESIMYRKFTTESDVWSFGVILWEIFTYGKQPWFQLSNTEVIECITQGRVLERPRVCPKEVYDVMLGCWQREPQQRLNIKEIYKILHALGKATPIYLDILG
Chain of TrkB (Q16620 32-822): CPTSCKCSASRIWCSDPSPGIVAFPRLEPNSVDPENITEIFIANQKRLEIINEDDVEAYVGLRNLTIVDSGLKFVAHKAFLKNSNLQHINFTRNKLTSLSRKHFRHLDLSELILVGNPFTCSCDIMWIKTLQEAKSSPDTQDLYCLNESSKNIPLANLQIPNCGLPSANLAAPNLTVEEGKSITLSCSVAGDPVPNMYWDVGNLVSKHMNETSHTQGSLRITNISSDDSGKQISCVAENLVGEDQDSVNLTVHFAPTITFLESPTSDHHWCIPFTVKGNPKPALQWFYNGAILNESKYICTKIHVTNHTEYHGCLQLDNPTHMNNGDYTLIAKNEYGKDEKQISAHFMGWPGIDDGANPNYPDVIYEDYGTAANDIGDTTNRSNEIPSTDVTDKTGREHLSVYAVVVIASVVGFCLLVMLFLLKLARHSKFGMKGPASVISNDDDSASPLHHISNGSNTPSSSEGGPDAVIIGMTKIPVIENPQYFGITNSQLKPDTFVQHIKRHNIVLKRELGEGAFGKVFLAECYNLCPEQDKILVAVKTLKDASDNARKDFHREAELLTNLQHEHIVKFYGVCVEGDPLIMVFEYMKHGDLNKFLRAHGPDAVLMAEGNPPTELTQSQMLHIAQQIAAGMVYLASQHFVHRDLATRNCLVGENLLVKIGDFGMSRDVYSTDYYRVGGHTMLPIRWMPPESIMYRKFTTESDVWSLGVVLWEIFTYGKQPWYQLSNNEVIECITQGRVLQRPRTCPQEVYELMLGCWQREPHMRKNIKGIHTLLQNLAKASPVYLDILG

For `CN1CCN(c2ccc(C(=O)Nc3n[nH]c4ccc(Cc5cc(F)cc(F)c5)cc34)c(NC3CCOCC3)c2)CC1` [N-[5-(3,5-difluorobenzyl)-1H-indazol-3-yl]-4-(4-methyl-piperazin-1-yl)-2-(tetrahydro-pyran-4-ylamino)-benzamide], the inhibition entry on TrkC, on TrkB and on ALK was “potent inhibitor” in each case. Also, the entries for the “AUC higher when taken with food” value in data set [1] (200 mg/m^2/day) and in data set [1] (400 mg/m^2/day) were “approximately 200%” and ~50%, respectively. Moreover, the “Cmax higher with food” value in data set [1] (both doses (200 and 400 mg/m^2/day)) is on record as “approximately 150%”. In data set [1] (some patients), the “exposures with concomitant proton pump inhibitor drugs (PPIs), such as lansoprazole” value is listed as “variable”. Further, the “Most abundant impurity (area %)” value in data set [2] (40° C./75% RH, listed as Control) was 0.13%; in data set [2] (60° C. Dry Heat) it was 0.13%. In addition, the physical state observed result in data set [2] (13 days of storage, 40° C. and 75% RH) was “remained dry”. For the same compound, in data set [3], the “exposure levels, fed compared to fasting conditions” value is given as “approximately 2 fold”. In addition, the “correlation of total exposure with body weight or body surface area” value in data set [4] is reported as “did not correlate with body weight or body surface area”. The antitumor effects entry in data set [5] is on record as “antitumor effects”.
